Data: ChEMBL document CHEMBL1772933, “Didemnidines A and B, indole spermidine alkaloids from the New Zealand ascidian Didemnum sp” (J Nat Prod, 2011)
pIC50: −log10 of the molar value. Activity calls are given as the source filed them. The calls are words filed in the database; no cut-off is given here.

How the values were obtained:
[1] = test system: Neutrophil; test: Inhibition of PMA-stimulated superoxide production in human neutrophils assessed as respiratory burst; assay type: functional, cell-based
[2] = test system: L6; test: Cytotoxicity against rat L6 cells after 72 hrs by alamar blue assay; assay type: cell-based; details: L6, 72 h
[3] = test system: Leishmania donovani; test: Antiprotozoal activity against Leishmania donovani MHOM/ET/67/L82 after 72 hrs by fluorimetry; assay type: functional, organism-based; details: MHOM/ET/67/L82, 72 h
[4] = test system: Trypanosoma cruzi; test: Antiparasitic activity against intracellular amastigotes of Trypanosoma cruzi Tulahuen C2C4 expressing LacZ gene infected in rat L6 cells after 96 hrs by photometrically; assay type: functional, organism-based; details: Tulahuen C2C4, L6, 96 h
[5] = test system: Plasmodium falciparum; test: Antimalarial activity against chloroquine- and pyrimethamine-resistant Plasmodium falciparum K1 assessed as [3H]-hypoxanthine incorporation after 48 hrs by liquid scintillation counting; assay type: functional, organism-based
[6] = test system: Trypanosoma brucei rhodesiense; test: Antiparasitic activity against bloodstream form of Trypanosoma brucei rhodesiense STIB 900 after 72 hrs by microplate reader assay; assay type: functional, organism-based; details: STIB 900, 72 h
[7] = biological target: T1, Phospholipase A2 (Apis mellifera) (UniProt P00630); test: Inhibition of Apis mellifera venom PLA2 by colorimetric bioassay
T1 sequence (whole entry): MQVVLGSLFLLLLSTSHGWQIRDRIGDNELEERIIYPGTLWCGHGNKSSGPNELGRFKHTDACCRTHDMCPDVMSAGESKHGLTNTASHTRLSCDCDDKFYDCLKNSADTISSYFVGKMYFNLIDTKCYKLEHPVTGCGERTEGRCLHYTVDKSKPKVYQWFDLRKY

[8] = test system: Saccharomyces cerevisiae; test: Inhibition of yeast FTase in presence of farnesyl pyrophosphate

Structure (SMILES) | inhibition [1] | pIC50 [2] | pIC50 [3] | pIC50 [4] | pIC50 [5] | pIC50 [6] | inhibition [7] | inhibition [8]
O=C1NC(=O)C(c2c[nH]c3cc(Br)ccc23)=C1c1cnc[nH]1 | inactive |  |  |  |  |  |  | 
COc1cc([C@@H]2c3cc4c(cc3[C@H](O)[C@H]3COC(=O)[C@H]23)OCO4)cc(OC)c1OC [PODOFILOX] |  | 8.00 |  |  |  |  |  | 
CCCCCCCCCCCCCCCCOP(=O)([O-])OCC[N+](C)(C)C [MILTEFOSINE] |  |  | 6.28 |  |  |  |  | 
NCCCCNCCCNC(=O)C(=O)c1c[nH]c2ccccc12 [DIDEMNIDINE A] | inactive | 4.62 | < 3.74 | 3.89 | 4.39 | 4.23 | inactive | inactive
CC(C)(C)OC(=O)NCCCCNCCCNC(=O)C(=O)c1c[nH]c2cc(Br)ccc12 | inactive | 4.60 | < 3.80 | 4.55 | 5.08 | 5.00 | inactive | inactive
CC(C)(C)OC(=O)NCCCCNCCCNC(=O)C(=O)c1c[nH]c2ccccc12 | inactive | 4.14 | < 3.72 | 4.06 | 4.49 | 4.47 | inactive | inactive
Cn1cncc1C1=C(c2c[nH]c3ccccc23)C(=O)NC1=O | inactive |  |  |  |  |  |  | 
NCCCCNCCCNC(=O)C(=O)c1c[nH]c2cc(Br)ccc12 [DIDEMNIDINE B] | inactive | 4.60 | < 3.80 | 4.09 | 4.82 | 4.36 | inactive | inactive
O=C1NC(=O)C(c2c[nH]c3ccccc23)=C1c1cnc[nH]1 | inactive |  |  |  |  |  |  | 
Cn1cncc1C1=C(c2c[nH]c3cc(Br)ccc23)C(=O)NC1=O | inactive |  |  |  |  |  |  | 
O=C(Cn1ccnc1[N+](=O)[O-])NCc1ccccc1 [BENZNIDAZOLE] |  |  |  | 5.87 |  |  |  | 
